Results: patent publication US9175260B2, “Early mesoderm cells, a stable population of mesendoderm cells that has utility for generation of endoderm and mesoderm lineages and multipotent migratory cells (MMC)” (TheUniversity of Georgia Research Foundation, Inc., priority 2007, dated 2015)

What was measured:
Type in all cases: cell-based, human
[1] = test system: hESCs (BG01); test: Mesendoderm generation from hESCs with BIO in defined media (Q-PCR, immunostaining); settings: BIO 2 μM
Description: hESCs (BG01) were plated as per the conditions specified in Example 1 in defined media. After ˜16-24 hours, BIO (2 μM) was added to cultures.

[2] = test system: hESCs (BG02); test: BIO added to hESCs grown in MEF-CM (immunostaining)
Description: hESCs (BG02) grown in MEF-CM on Matrigel coated plates, were passaged in MEF-CM plus BIO (2 μM) over 4 days.

[3] = test system: hESC (BG02); test: Generation of definitive endoderm: BIO and SB431542 followed by high Activin A (Q-PCR); settings: defined media minus IGF-I and Heregulin plus Activin A 100 ng/ml, 4 days, after 4 days BIO/SB431542
Description: hESC were taken and grown in defined media in the presence of BIO (2 μM) and SB431542 (20 μM) for 4 days. The cells were then split 1-4 into the same media or defined media minus IGF-I and heregulin and with additional Activin A (100 ng/ml) for an additional 4 days (FIG. 22). Samples (BG02) were taken every 2 days up to 8 days for Q-PCR analysis. […] This cell type persisted in the presence of BIO/SB431542.

[4] = test system: cells passaged in BIO/SB431542 (MMCs); test: Differentiation of MMCs to endoderm with Activin A after removal of BIO/SB431542 (Q-PCR); settings: 6 passages in BIO/SB431542, then Activin A to 100 ng/ml without IGF-I, heregulin; 4 day period
From the text: We consider these cells to be pre-mesoderm and pre-endoderm but no longer hESCs. This raised the possibility that these cells retained a multipotent differentiation potential that could be manifested following removal of BIO/SB431542 and by addition of cell differentiation factors. To test the possibility that the cells in BIO/SB431542-containing media could be further differentiated into endoderm, we grew cells for 6 passages in BIO/SB431542, then removed BIO/SB431542, and IGF-I, heregulin (two activators of PI3K activity) from the media and supplemented with Activin A to 100 ng/ml. These are conditions that support differentiation of hESCs to definitive endoderm. Over a 4 day period following the switch to the endoderm differentiation conditions we observed increases in Sox17 and CXCR4 transcripts while Nanog, T and eomesodermin transcripts remained low (FIG. 32). […] We propose that the BIO/SB431542 treated cells could also be differentiated into mesoderm and perhaps other lineages (ectoderm) if exposed to the appropriate specification factors. For example, we believe that BIO/SB431542-treated cells could be converted to mesoderm cells if BIO/SB431542 was removed and BMP4 was added to the media.

[5] = test system: hESCs (BG01); test: Mesendoderm generation from hESCs with Wnt3a in defined media (Q-PCR, immunostaining); settings: Wnt3a 25 ng/ml
Description: hESCs (BG01) were plated as per the conditions specified in Example 1 in defined media. After ˜16-24 hours, human Wnt3a (25 ng/ml; R&D Systems) was added to cultures.

[6] = involving an epithelial to mesenchymal transition
[7] = BIO 2 μM, 4 days, cells passaged with trypsin
[8] = BIO, cells passaged with collagenase

Molecule: O=C1Nc2cc(Br)ccc2/C1=C1/Nc2ccccc2/C1=N\O [BIO, (2′Z,3′E)-6-Bromoindirubin-3′-oxime]
- Snail localisation (immunostaining) ([1]; 48 hours): accumulates in the nucleus
- T/brachyury levels (immunostaining) ([1]; 48 hours): increased
- E-cadherin and Nanog (immunostaining) ([1]; after 48 hours): downregulated
- Nanog transcripts (Q-PCR) ([1]; defined media): decreased by 48 hours
- T and MixL1 mRNA levels (Q-PCR) ([1]; defined media): increased over the first 24 hours then decreased thereon
- differentiation outcome [1, 6]: caused hESCs to differentiate to mesendoderm
- differentiation outcome ([2]; BIO 2 μM): promotes an epithelial to mesenchymal transition and differentiation to mesendoderm
- Oct4 and E-cadherin (immunostaining) [2, 7]: downregulation
- T/Brachyury (immunostaining) [2, 7]: upregulation
- Nanog and E-cadherin (immunostaining) [2, 8]: downregulation
- T/Brachyury (immunostaining) [2, 8]: upregulation

B1: Activin A: growth factor (R&D Systems), used at high levels (100 ng/ml) to produce definitive endoderm (protein, UniProt P08476 311-426, looked up)
Inhibin beta A chain: GLECDGKVNICCKKQFFVSFKDIGWNDWIIAPSGYHANYCEGECPSHIAGTSGSSLSFHSTVINHYRMRGHSPFANLKSCCVPTKLRPMSMLYYDDGQNIIKKDIQNMIVEECGCS
- differentiation after switch to Activin A (Q-PCR: Sox17, CXCR4 upregulated, FoxF1 absent) [3]: further differentiated into DE
- Nanog, T and eomesodermin transcripts (Q-PCR) [4]: remained low
- Sox17 and CXCR4 transcripts (Q-PCR) [4]: increases

B2: Wnt3a: canonical Wnt signaling molecule; human Wnt3a (R&D Systems) (protein, UniProt P56704 19-352, looked up)
Protein Wnt-3a: SYPIWWSLAVGPQYSSLGSQPILCASIPGLVPKQLRFCRNYVEIMPSVAEGIKIGIQECQHQFRGRRWNCTTVHDSLAIFGPVLDKATRESAFVHAIASAGVAFAVTRSCAEGTAAICGCSSRHQGSPGKGWKWGGCSEDIEFGGMVSREFADARENRPDARSAMNRHNNEAGRQAIASHMHLKCKCHGLSGSCEVKTCWWSQPDFRAIGDFLKDKYDSASEMVVEKHRESRGWVETLRPRYTYFKVPTERDLVYYEASPNFCEPNPETGSFGTRDRTCNVSSHGIDGCDLLCCGRGHNARAERRREKCRCVFHWCCYVSCQECTRVYDVHTCK
- T/brachyury levels (immunostaining) ([5]; 48 hours): increased
- β-catenin and Snail localisation (immunostaining) ([5]; 48 hours): accumulate in the nucleus
- E-cadherin and Nanog (immunostaining) ([5]; after 48 hours): downregulated
- Nanog transcripts (Q-PCR) ([5]; defined media): decreased by 48 hours
- T, Eomes and MixL1 mRNA levels (Q-PCR) ([5]; defined media): increased over 1-2 days, then decreased by day 5
- differentiation outcome [5, 6]: caused hESCs to differentiate to mesendoderm
